What was measured:
ROS1 [1] = molecular target: T1, ROS1 (Homo sapiens, UniProt P08922); assay: ROS1 kinase inhibitory activity evaluation (mobility shift, EZ Reader II); type: biochemical; conditions: ROS1 25 pg/μL, FL-Peptide 22 substrate, three separate measurements
T1 construct: purchased Carna Biosciences 08-163
Description: Next, a substrate reaction solution was prepared. […] Then, the reaction stop solution was added thereto at a concentration of 40 μL/well. Substrate phosphorylation intensity was measured using EZ Reader II (Caliper Life Sciences).

ROS1 [2] = molecular target: T1, ROS1; assay: ROS1 autophosphorylation inhibitory activity evaluation (ADP-Glo); type: biochemical; conditions: 200 nM inactive ROS1, ATP 1 mM, 25° C. 1.5 hours, ADP generated, four separate measurements
Description: Fifty mM HEPES (pH 7.5), 10 mM MgCl2, 0.01% Brij-58, and 2.5 mM DTT were mixed to prepare an enzymatic reaction solution. […] ATP (final concentration: 1 mM) was further added thereto at a concentration of 2.5 μL/well. The resulting plate was left standing at 25° C. for 1.5 hours to cause enzymatic reaction. After the completion of enzymatic reaction, ADP-Glo Reagent-1 (Promega, V9103) was added thereto at a concentration of 2.5 μL/well, and the plate was left standing at room temperature for 60 minutes. Then, ADP-Glo Reagent-2 (Promega) was added thereto at a concentration of 5 μL/well, and the plate was left standing at room temperature for 60 minutes. The amount of ADP generated by the autophosphorylation of ROS1 was measured using EnVision (PerkinElmer Japan). The amount of ADP generated in four separate measurements was defined as the autophosphorylation intensity of ROS1. IC50 values were calculated by curve fitting using GraphPad Prism version 4 (GraphPad software).

[3] = system: HCC78 cells having ROS1 fusion gene; assay: HCC78 cell growth assay (CellTiter-Glo); type: cell-based; conditions: Homo sapiens, HCC78, 72 h, 72 hours culture, 2% FBS medium, luminescence, four separate measurements; read-out: growth inhibitory effect on HCC78 cells having ROS1 fusion gene IC50
Description: Each compound of the present invention was assayed for its cell growth inhibitory effect using HCC78 cells having ROS1 fusion gene.
The suspension was dispensed at a concentration of 100 μL/well to a 96-well culture plate for cell culture (SUMITOMO BAKELITE, Cat No MS-0096S) (hereinafter, referred to as an assay plate). […] In this context, the final concentration of DMSO was set to 0.4%. Then, the cells were cultured for 72 hours in a CO2 incubator.
CellTiter-Glo Luminescent Cell Viability Assay reagent (Promega, Cat No G7571) was dispensed at a concentration of 100 μL/well to the assay plate. The contents in each well were reacted at room temperature for 10 minutes while stirred using a plate mixer. […] The luminescence intensity of each well was measured using EnVision. The luminescence intensity of each well obtained in four separate measurements was defined as the number of cells. IC50 values were calculated by curve fitting using GraphPad Prism version 4.

T1 sequence (P08922 28-2347): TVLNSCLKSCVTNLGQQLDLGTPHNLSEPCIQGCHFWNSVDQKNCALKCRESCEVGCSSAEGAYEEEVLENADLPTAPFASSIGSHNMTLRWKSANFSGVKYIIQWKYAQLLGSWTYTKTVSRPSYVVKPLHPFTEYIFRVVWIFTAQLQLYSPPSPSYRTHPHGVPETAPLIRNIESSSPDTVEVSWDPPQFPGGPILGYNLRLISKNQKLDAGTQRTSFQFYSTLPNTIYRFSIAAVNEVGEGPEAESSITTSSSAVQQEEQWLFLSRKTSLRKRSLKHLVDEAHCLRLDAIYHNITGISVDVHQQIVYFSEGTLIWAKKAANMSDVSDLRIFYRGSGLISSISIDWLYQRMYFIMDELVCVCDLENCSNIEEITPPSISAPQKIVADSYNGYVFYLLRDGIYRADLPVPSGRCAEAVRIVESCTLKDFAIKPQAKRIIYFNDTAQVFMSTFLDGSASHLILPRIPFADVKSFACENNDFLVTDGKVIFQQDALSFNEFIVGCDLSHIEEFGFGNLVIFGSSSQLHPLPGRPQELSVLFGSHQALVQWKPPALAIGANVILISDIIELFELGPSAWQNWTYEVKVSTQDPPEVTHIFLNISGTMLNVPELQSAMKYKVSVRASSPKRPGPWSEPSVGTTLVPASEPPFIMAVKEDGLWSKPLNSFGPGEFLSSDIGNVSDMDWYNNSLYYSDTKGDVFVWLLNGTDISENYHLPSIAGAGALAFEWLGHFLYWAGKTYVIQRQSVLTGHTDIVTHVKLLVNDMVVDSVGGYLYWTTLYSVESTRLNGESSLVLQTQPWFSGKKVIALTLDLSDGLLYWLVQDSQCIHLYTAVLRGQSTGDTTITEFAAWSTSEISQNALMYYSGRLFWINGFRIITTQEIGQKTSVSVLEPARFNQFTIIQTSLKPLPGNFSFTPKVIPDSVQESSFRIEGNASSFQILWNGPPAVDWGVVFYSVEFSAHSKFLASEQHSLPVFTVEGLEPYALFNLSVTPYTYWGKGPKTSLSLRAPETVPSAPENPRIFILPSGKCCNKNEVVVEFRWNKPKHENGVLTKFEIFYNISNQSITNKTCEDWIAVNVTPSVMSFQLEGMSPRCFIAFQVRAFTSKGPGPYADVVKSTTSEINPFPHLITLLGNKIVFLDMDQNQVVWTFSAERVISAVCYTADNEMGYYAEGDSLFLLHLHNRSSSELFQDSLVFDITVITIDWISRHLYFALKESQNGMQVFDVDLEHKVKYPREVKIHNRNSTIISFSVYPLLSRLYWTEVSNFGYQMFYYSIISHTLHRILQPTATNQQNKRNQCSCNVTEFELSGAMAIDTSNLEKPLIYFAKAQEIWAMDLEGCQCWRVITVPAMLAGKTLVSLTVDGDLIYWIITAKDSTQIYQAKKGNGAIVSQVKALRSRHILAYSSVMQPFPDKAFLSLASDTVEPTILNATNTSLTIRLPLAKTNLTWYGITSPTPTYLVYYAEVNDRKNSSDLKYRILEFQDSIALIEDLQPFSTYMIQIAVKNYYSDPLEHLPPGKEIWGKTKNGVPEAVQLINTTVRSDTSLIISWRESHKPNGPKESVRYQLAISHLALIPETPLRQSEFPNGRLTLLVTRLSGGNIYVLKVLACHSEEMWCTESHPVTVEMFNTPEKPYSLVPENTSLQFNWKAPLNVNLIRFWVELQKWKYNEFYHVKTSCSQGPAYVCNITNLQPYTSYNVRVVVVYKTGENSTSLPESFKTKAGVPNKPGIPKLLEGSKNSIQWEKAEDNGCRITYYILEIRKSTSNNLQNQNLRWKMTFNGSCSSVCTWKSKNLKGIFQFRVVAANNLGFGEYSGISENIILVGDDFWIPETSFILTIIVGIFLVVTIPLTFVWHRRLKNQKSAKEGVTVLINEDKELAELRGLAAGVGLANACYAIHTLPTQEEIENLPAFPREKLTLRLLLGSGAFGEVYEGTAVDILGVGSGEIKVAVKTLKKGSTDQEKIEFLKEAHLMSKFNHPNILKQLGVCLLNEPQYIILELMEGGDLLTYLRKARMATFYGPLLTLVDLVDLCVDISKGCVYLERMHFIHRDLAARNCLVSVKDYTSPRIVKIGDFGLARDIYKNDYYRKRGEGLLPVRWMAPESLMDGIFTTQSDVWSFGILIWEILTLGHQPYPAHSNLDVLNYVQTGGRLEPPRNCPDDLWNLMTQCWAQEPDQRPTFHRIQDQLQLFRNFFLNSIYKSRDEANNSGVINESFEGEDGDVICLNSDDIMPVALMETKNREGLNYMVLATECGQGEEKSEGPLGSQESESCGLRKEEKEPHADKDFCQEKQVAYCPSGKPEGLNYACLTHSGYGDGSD

SMILES	IC50 (ROS1 [1])	IC50 (ROS1 [2])	IC50 [3]
C[C@@H](Nc1ccc2ncc(-c3ccc(OC[C@@H]4CCCN4)c(C#N)c3)n2n1)c1cccc(F)c1 [Example 48, 5-[6-[[(1R)-1-(3-Fluorophenyl)ethyl]amino]imidazo[1,2-b]pyridazin-3-yl]-2-[[(2S)-pyrrolidin-2-yl]methoxy]benzonitrile]	< 1 nM	< 20 nM	< 20 nM
C[C@@H](Nc1ccc2ncc(-c3ccc(OC[C@@H]4CCN4)c(F)c3)n2n1)c1cccc(F)c1 [Example 44, 3-[4-[[(2S)-Azetidin-2-yl]methoxy]-3-fluoro-phenyl]-N-[(1R)-1-(3-fluorophenyl)ethyl]imidazo[1,2-b]pyridazin-6-amine]	< 1 nM	< 20 nM	< 20 nM
CC(Oc1ccc2ncc(-c3ccc(N4C[C@@H](N)CC4=O)cc3)n2n1)c1cc(F)cnc1F (stereo partly drawn) [Example 106]	< 1 nM	< 20 nM	< 20 nM
CC(Oc1ccc2ncc(-c3ccc(N4C[C@@H](N)CC4=O)cc3)n2n1)c1cccc(F)c1F (stereo partly drawn) [Example 102, (4S)-4-Amino-1-[4-[6-[1-(2,3-difluorophenyl)ethoxy]imidazo[1,2-b]pyridazin-3-yl]phenyl]pyrrolidin-2-one]	1 to 10 nM	< 20 nM	100 to 600 nM
N#Cc1cccc(COc2ccc3ncc(-c4ccc(N5C[C@@H](N)CC5=O)cc4)n3n2)c1 [Example 101, 3-[[3-[4-[(4S)-4-Amino-2-oxopyrrolidin-1-yl]phenyl]imidazo[1,2-b]pyridazin-6-yl]oxymethyl]benzonitrile]	1 to 10 nM	20 to 100 nM	100 to 600 nM
NC1CCN(c2ccc(-c3cnc4ccc(OCc5cccc(F)c5)nn34)cc2)C1=O (stereo not drawn) [Example 75, 3-Amino-1-[4-[6-[(3-fluorophenyl)methoxy]imidazo[1,2-b]pyridazin-3-yl]phenyl]pyrrolidin-2-one]	1 to 10 nM	20 to 100 nM	100 to 600 nM
C[C@@H](Oc1ccc2ncc(-c3ccc(N4C[C@H](N)CC4=O)cc3)n2n1)c1cccc(F)c1 [Example 78, (4R)-4-Amino-1-[4-[6-[(1R)-1-(3-fluorophenyl)ethoxy]imidazo[1,2-b]pyridazin-3-yl]phenyl]pyrrolidin-2-one]	1 to 10 nM	< 20 nM	20 to 100 nM
C[C@@H](Nc1ccc2ncc(-c3ccc(O[C@H]4C[C@@H](N)C4)cc3)n2n1)c1cccc(F)c1 [Example 61, 3-[4-(3-cis-Aminocyclobutoxy)phenyl]-N-[(1R)-1-(3-fluorophenyl)ethyl]imidazo[1,2-b]pyridazin-6-amine]	1 to 10 nM	< 20 nM	20 to 100 nM
CN(Cc1cccc(F)c1)c1ccc2ncc(-c3ccc(N4CC(N)CC4=O)cc3)n2n1 (stereo not drawn) [Example 82, 4-Amino-1-[4-[6-[(3-fluorophenyl)methyl-methylamino]imidazo[1,2-b]pyridazin-3-yl]phenyl]pyrrolidin-2-one]	< 1 nM	< 20 nM	20 to 100 nM
CN(Cc1cc(F)ccc1Cl)c1ccc2ncc(-c3ccc(N4C[C@@H](N)CC4=O)cc3)n2n1 [Example 99, (4S)-4-Amino-1-[4-[6-[(2-chloro-5-fluorophenyl)methyl-methylamino]imidazo[1,2-b]pyridazin-3-yl]phenyl]pyrrolidin-2-one]	1 to 10 nM	20 to 100 nM	20 to 100 nM
c1ccc(CNc2ccc3ncc(-c4ccc(OC[C@@H]5CCCN5)cc4)n3n2)cc1 [Example 1, N-Benzyl-3-[4-[[(2S)-pyrrolidin-2-yl]methoxy]phenyl]imidazo[1,2-b]pyridazin-6-amine]	1 to 10 nM	20 to 100 nM	20 to 100 nM
C[C@@H](Nc1ccc2ncc(-c3cccc(OCCCN)c3)n2n1)c1cccc(F)c1 [Example 68, 3-[3-(3-Aminopropoxy)phenyl]-N-[(1R)-1-(3-fluorophenyl)ethyl]imidazo[1,2-b]pyridazin-6-amine]	1 to 10 nM	< 20 nM	20 to 100 nM

Second part, the compound after the results:

IC50 (ROS1 [1])	IC50 (ROS1 [2])	IC50 [3]	SMILES
1 to 10 nM	< 20 nM	20 to 100 nM	C[C@@H](Nc1ccc2ncc(-c3ccc(OC4CNC4)cc3)n2n1)c1cccc(F)c1 [Example 25, 3-[4-(Azetidin-3-yloxy)phenyl]-N-[(1R)-1-(3-fluorophenyl)ethyl]imidazo[1,2-b]pyridazin-6-amine]
1 to 10 nM	20 to 100 nM	20 to 100 nM	CN[C@H]1CC(=O)N(c2ccc(-c3cnc4ccc(O[C@H](C)c5cncc(F)c5)nn34)cc2)C1 [Example 108, (4S)-1-[4-[6-[(1R)-1-(5-Fluoro-3-pyridyl)ethoxy]imidazo[1,2-b]pyridazin-3-yl]phenyl]-4-(methylamino)pyrrolidin-2-one]
10 to 60 nM	20 to 100 nM	100 to 600 nM	CN(Cc1cncc(F)c1)c1ccc2ncc(-c3ccc(N4C[C@@H](N)CC4=O)c(C#N)c3)n2n1 [Example 130]
1 to 10 nM	20 to 100 nM	20 to 100 nM	C[C@@H](Nc1ccc2ncc(-c3cccc(OC[C@@H]4CCN4)c3)n2n1)c1cccc(F)c1 [Example 57, 3-[3-[[(2S)-Azetidin-2-yl]methoxy]phenyl]-N-[(1R)-1-(3-fluorophenyl)ethyl]imidazo[1,2-b]pyridazin-6-amine]
1 to 10 nM	20 to 100 nM	100 to 600 nM	Fc1cccc(COc2ccc3ncc(-c4ccc(OC[C@@H]5CCCN5)cc4)n3n2)c1 [Example 12, 6-[(3-Fluorophenyl)methoxy]-3-[4-[[(2S)-pyrrolidin-2-yl]methoxy]phenyl]imidazo[1,2-b]pyridazine]
< 1 nM	< 20 nM	20 to 100 nM	C[C@@H](Nc1ccc2ncc(-c3ccc(OCC4(N)CC4)cc3)n2n1)c1cccc(F)c1 [Example 39, 3-[4-[(1-Aminocyclopropyl)methoxy]phenyl]-N-[(1R)-1-(3-fluorophenyl)ethyl]imidazo[1,2-b]pyridazin-6-amine]
1 to 10 nM	20 to 100 nM	20 to 100 nM	Cc1ccc(F)cc1COc1ccc2ncc(-c3ccc(N4C[C@@H](N)CC4=O)cc3)n2n1 [Example 103, (4S)-4-Amino-1-[4-[6-[(5-fluoro-2-methylphenyl)methoxy]imidazo[1,2-b]pyriazin-3-yl]phenyl]pyrrolidin-2-one]
1 to 10 nM	20 to 100 nM	20 to 100 nM	Cc1cc(-c2cnc3ccc(OC(C)c4cncc(F)c4)nn23)ccc1N1C[C@@H](N)CC1=O (stereo partly drawn) [Example 111]
10 to 60 nM	100 to 150 nM	100 to 600 nM	CC(Oc1ccc2ncc(-c3ccc(N4C[C@@H](N)CC4=O)cc3)n2n1)c1cc(C#N)n(C)n1 (stereo partly drawn) [Example 116, 5-[1-[3-[4-[(4S)-4-Amino-2-oxopyrrolidin-1-yl]phenyl]imidazo[1,2-b]pyridazin-6-yl]oxyethyl]-2-methylpyrazole-3-carbonitrile]
< 1 nM	< 20 nM	100 to 600 nM	C[C@@H](Nc1ccc2ncc(-c3ccc(OC[C@@H]4CCNC4)cc3)n2n1)c1cccc(F)c1 [Example 23, N-[(1R)-1-(3-Fluorophenyl)ethyl]-3-[4-[[(3R)-pyrrolidin-3-yl]methoxy]phenyl]imidazo[1,2-b]pyridazin-6-amine]
1 to 10 nM	20 to 100 nM	100 to 600 nM	CCN(Cc1ccccc1)c1ccc2ncc(-c3ccc(N4C[C@@H](N)CC4=O)cc3)n2n1 [Example 95, (4S)-4-Amino-1-[4-[6-[benzo(ethyl)amino]imidazo[1,2-b]pyridazin-3-yl]phenyl]pyrrolidin-2-one]
< 1 nM	< 20 nM	< 20 nM	C[C@@H](Nc1ccc2ncc(-c3ccc(N4C[C@@H](N)CC4=O)cc3)n2n1)c1ccccc1 [Example 88, (4S)-4-Amino-1-[4-[6-[[(1R)-1-phenylethyl]amino]imidazo[1,2-b]pyridazin-3-yl]phenyl]pyrrolidin-2-one]
< 1 nM	< 20 nM	< 20 nM	C[C@@H](Nc1ccc2ncc(-c3ccc(OC[C@@H]4C[C@H](F)CN4)nc3)n2n1)c1cccc(F)c1 [Example 47, N-[(1R)-1-(3-Fluorophenyl)ethyl]-3-[6-[[(2S,4S)-4-fluoropyrrolidin-2-yl]methoxy]-3-pyridyl]imidazo[1,2-b]pyridazin-6-amine]
< 1 nM	< 20 nM	< 20 nM	C[C@@H](Nc1ccc2ncc(-c3ccc(OCCN)cc3)n2n1)c1cccc(F)c1 [Example 26, 3-[4-(2-Aminoethoxy)phenyl]-N-[(1R)-1-(3-fluorophenyl)ethyl]imidazo[1,2-b]pyridazin-6-amine]
